ChEMBL document CHEMBL3997785, “Optimization of 2-Anilino 4-Amino Substituted Quinazolines into Potent Antimalarial Agents with Oral in Vivo Activity” (J Med Chem, 2017)
Activity calls are given as the source filed them. No cut-off for these calls is given here.

Key:
[1] = Intrinsic clearance in human liver microsomes at 1 uM in presence of NADPH by LC-MS method; format: ADME, microsome; settings: read-out: CLH
[2] = Aqueous solubility of the compound at pH 6.5 by nephelometry; format: physicochemical
Plasmodium falciparum [3] = assay: Antimalarial activity against Plasmodium falciparum 3D7 asexual blood stage infected in human erythrocytes incubated for 72 hrs by LDH assay; format: functional, cell-based; settings: 3D7, 72 h
HepG2 = assay: Cytotoxicity against human HepG2 cells assessed as growth inhibition after 48 hrs by Cell Titer-Glo assay; format: cell-based; settings: HepG2, 48 h
[4] = Selectivity index, ratio of EC50 for human HepG2 cells to EC50 for Plasmodium falciparum 3D7 asexual blood stage infected in human erythrocytes; format: toxicity, cell-based; settings: read-out: Ratio EC50
[5] = Aqueous solubility of the compound at pH 2 by nephelometry; format: physicochemical
[6] = Half life in human liver microsomes at 1 uM in presence of NADPH by LC-MS method; format: ADME, microsome
[7] = Half life in mouse liver microsomes at 1 uM in presence of NADPH by LC-MS method; format: ADME, microsome
[8] = Intrinsic clearance in mouse liver microsomes at 1 uM in presence of NADPH by LC-MS method; format: ADME, microsome; settings: read-out: CLH
Plasmodium falciparum [9] = assay: Antimalarial activity against chloroquine and mefloquine resistant Plasmodium falciparum W2mef infected in human erythrocytes incubated for 72 hrs by LDH assay; format: functional, cell-based
Plasmodium falciparum [10] = assay: Antimalarial activity against synchronous culture of Plasmodium falciparum 3D7 infected in human erythrocytes assessed as development arrest at ring stage of asexual life cycle leading to parasite death at 10 times EC50 up to 48 hrs by Giemsa-staining based assay relative to control; format: functional, cell-based
Plasmodium falciparum [11] = assay: Antimalarial activity against synchronous culture of Plasmodium falciparum 3D7 ring stage parasite infected in human erythrocytes incubated for 3 hrs followed by compound wash out and measured after 24 hrs by NanoGlo-reagent based bioluminescence assay; format: functional, cell-based
Plasmodium falciparum [12] = assay: Antimalarial activity against synchronous culture of Plasmodium falciparum 3D7 ring stage parasite infected in human erythrocytes incubated for 6 hrs followed by compound wash out and measured after 24 hrs by NanoGlo-reagent based bioluminescence assay; format: functional, cell-based
Plasmodium falciparum [13] = assay: Antimalarial activity against synchronous culture of Plasmodium falciparum 3D7 ring stage parasite infected in human erythrocytes incubated for 24 hrs followed by compound wash out and measured after 24 hrs by NanoGlo-reagent based bioluminescence assay; format: functional, cell-based; settings: 3D7, 24 h
Plasmodium falciparum [14] = assay: Antimalarial activity against Plasmodium falciparum NF54 harboring pfs16-LUC-GFP ring stage gametocytes after 24 hrs by MitoTracker Red staining based confocal microscopy; format: functional; settings: NF54, 24 h
Plasmodium falciparum [15] = assay: Antimalarial activity against Plasmodium falciparum NF54 harboring pfs16-LUC-GFP early stage 1 to 3 gametocytes after 48 hrs by MitoTracker Red staining based confocal microscopy; format: functional; settings: NF54, 48 h
Plasmodium falciparum [16] = assay: Antimalarial activity against Plasmodium falciparum NF54 harboring pfs16-LUC-GFP late stage 4 to 5 gametocytes after 48 hrs by MitoTracker Red staining based confocal microscopy; format: functional; settings: NF54, 48 h
Plasmodium berghei [17] = assay: Antimalarial activity against Plasmodium berghei ANKA infected Swiss black mouse model at 20 mg/kg administered via oral gavage for 4 days starting 4 hrs post infection by microscopic method; format: functional
Plasmodium berghei [18] = assay: Antimalarial activity against Plasmodium berghei ANKA infected Swiss black mouse at 20 mg/kg, ip administered for 4 days starting 4 hrs post infection by microscopic method; format: functional
Plasma [19] = assay: Drug uptake in Plasmodium berghei ANKA infected Swiss black mouse plasma at 20 mg/kg, ip measured after 20 hrs; format: ADME, organism-based; settings: in vivo
Plasmodium falciparum [20] = assay: Antimalarial activity against Plasmodium falciparum 3D7 infected in human erythrocytes assessed as arrest at trophozoite stage of asexual life cycle leading to parasite death at 10 times EC50 up to 48 hrs by Giemsa-staining based assay relative to control; format: functional, cell-based
[21] = Hepatic extraction ratio in human liver microsomes at 1 uM in presence of NADPH by LC-MS method; format: ADME, microsome; settings: read-out: ERH
[22] = Hepatic extraction ratio in mouse liver microsomes at 1 uM in presence of NADPH by LC-MS method; format: ADME, microsome; settings: read-out: ERH
Liver [23] = assay: Drug metabolism in human liver microsomes assessed as N-demethylation of methyl piperidine or piperazine at 1 uM after 60 mins in presence of NADPH by LC-MS method; format: ADME, microsome; settings: 1 h
Liver [24] = assay: Drug metabolism in mouse liver microsomes assessed as N-demethylation of methyl piperidine or piperazine at 1 uM after 60 mins in presence of NADPH by LC-MS method; format: ADME, microsome; settings: 1 h
Liver [25] = assay: Drug metabolism in human liver microsomes assessed as mono-oxygenation at 6th position of quinazoline at 1 uM after 60 mins in presence of NADPH by LC-MS method; format: ADME, microsome; settings: 1 h
Liver [26] = assay: Drug metabolism in mouse liver microsomes assessed as mono-oxygenation at 6th position of quinazoline at 1 uM after 60 mins in presence of NADPH by LC-MS method; format: ADME, microsome; settings: 1 h
Liver [27] = assay: Drug metabolism in human liver microsomes assessed as hydro defluorination at 1 uM after 60 mins in presence of NADPH by LC-MS method; format: ADME, microsome; settings: 1 h
Liver [28] = assay: Drug metabolism in mouse liver microsomes assessed as hydro defluorination at 1 uM after 60 mins in presence of NADPH by LC-MS method; format: ADME, microsome; settings: 1 h
[29] = Ratio of EC50 for Plasmodium falciparum NF54-pfs16-LUC-GFP ring stage gametocytes to EC50 for Plasmodium falciparum 3D7 asexual blood stage infected in human erythrocytes; format: functional
[30] = Ratio of EC50 for Plasmodium falciparum NF54-pfs16-LUC-GFP early stage gametocytes to EC50 for Plasmodium falciparum 3D7 asexual blood stage infected in human erythrocytes; format: functional
Plasma [31] = assay: Drug uptake in Plasmodium berghei ANKA infected Swiss black mouse plasma at 20 mg/kg, po via gavage measured after 20 hrs; format: ADME, organism-based; settings: in vivo

`CN1CCN(CCNc2nc(Nc3ccc(F)c(Cl)c3)nc3ccccc23)CC1.Cl.Cl` gave a microsomal CLint at 1 µM [1] of less than 7 µL/min/mg, a solubility kinetic [2] of 11.3 to 23 µM and an EC50 (Plasmodium falciparum [3]) of 26 nM. For the same compound, the EC50 (HepG2) was 6100 nM, the selectivity ratio [4] was 240 and the solubility kinetic [5] was greater than 90 µM. For the same compound, the half-life at 1 µM [6] was greater than 255 min, the half-life at 1 µM [7] was 30 min and the microsomal CLint at 1 µM [8] was 57 µL/min/mg. For the same compound, the EC50 (Plasmodium falciparum [9]) was 49 nM, the Activity (Plasmodium falciparum [10]) was “Active” and the EC50 (Plasmodium falciparum [11]) was 2500 nM. The Activity (Plasmodium falciparum [12]) was “Dose dependent effect”, the EC50 (Plasmodium falciparum [12]) was 2960 nM and the EC50 (Plasmodium falciparum [13]) was 323 nM. For the same compound, the EC50 (Plasmodium falciparum [14]) was 179 nM, the EC50 (Plasmodium falciparum [15]) was 326 nM and the EC50 (Plasmodium falciparum [16]) was 3000 nM. For the same compound, the Activity (Plasmodium berghei [17]) was greater than 90%, the Activity (Plasmodium berghei [18]) was greater than 98% and the Drug uptake (Plasma [19]) was “Active”. For the same compound, the Activity (Plasmodium falciparum [20]) was “inactive”, the hepatic extraction ratio at 1 µM [21] was less than 0.22 and the hepatic extraction ratio at 1 µM [22] was 0.55. The Drug metabolism (Liver [23]) was “Metabolite_Detected”, the Drug metabolism (Liver [24]) was “Metabolite_Detected” and the Drug metabolism (Liver [25]) was “Metabolite_Detected”. For the same compound, the Drug metabolism (Liver [26]) was “Metabolite_Detected”, the Drug metabolism (Liver [27]) was “Metabolite_Detected” and the Drug metabolism (Liver [28]) was “Metabolite_Detected”. The “Ratio EC50” value [29] was 10, the “Ratio EC50” value [30] was 15 - 25 and the Drug uptake (Plasma [31]) was “Active”.
